Measurements taken from article PMC10728897, “High-Throughput Engineering of Nonribosomal Extension Modules” (ACS Chemical Biology, 2023).

How the values were obtained:
TycC6 C-A-T tridomain = biological target: T1, TycC6 C-A-T tridomain (Brevibacillus parabrevis, UniProt O30409); assay: yeast surface display loading assay, click biotinylation, flow cytometry; assay type: cell-based; conditions: 20 and 50 mM pGly, 0.1 mM ATP, 1 mM MgCl2, pH 7.4, 25 C; covalent loading on ppant of T domain; modest efficiency
T1 construct: gene tycC; ppant installed by Sfp
T1 sequence (O30409 5200-6255 limits assumed): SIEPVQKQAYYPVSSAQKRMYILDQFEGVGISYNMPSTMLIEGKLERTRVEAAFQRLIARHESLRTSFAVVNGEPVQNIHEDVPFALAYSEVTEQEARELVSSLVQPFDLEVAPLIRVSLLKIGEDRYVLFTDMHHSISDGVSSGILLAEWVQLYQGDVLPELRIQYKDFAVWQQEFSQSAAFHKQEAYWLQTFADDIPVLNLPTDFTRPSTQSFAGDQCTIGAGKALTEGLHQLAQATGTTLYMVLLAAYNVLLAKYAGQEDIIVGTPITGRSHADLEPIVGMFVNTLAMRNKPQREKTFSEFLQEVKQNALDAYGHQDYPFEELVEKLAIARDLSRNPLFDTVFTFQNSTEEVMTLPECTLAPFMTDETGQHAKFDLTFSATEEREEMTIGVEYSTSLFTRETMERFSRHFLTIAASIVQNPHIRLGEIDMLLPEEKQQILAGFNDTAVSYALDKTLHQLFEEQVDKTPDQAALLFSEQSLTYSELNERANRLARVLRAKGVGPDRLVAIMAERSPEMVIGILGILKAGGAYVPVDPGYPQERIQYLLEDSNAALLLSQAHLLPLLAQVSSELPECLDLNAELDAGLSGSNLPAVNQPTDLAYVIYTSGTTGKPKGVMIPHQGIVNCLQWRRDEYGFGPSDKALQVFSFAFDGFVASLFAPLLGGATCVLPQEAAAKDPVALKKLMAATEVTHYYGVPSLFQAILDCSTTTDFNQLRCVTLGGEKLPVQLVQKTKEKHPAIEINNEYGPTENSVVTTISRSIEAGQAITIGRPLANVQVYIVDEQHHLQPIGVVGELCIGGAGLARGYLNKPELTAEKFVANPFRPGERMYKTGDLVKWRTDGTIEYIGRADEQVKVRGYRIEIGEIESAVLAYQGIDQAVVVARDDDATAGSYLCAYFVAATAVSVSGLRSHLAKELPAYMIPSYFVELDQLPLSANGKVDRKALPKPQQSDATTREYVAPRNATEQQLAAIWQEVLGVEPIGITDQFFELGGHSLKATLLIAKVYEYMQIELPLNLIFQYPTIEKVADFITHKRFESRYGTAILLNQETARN

TycB2 A-T bidomain = biological target: T2, TycB2 A-T bidomain (Brevibacillus parabrevis, UniProt O30408, M1767A/M1802I, form not given); assay: as above; assay type: cell-based; conditions: 0.5 mM pPhe with 0.5 mM L-Phe as competitor, 0.1 mM ATP, pH 7.4, 25 C; covalent loading on ppant of T domain
T2 construct: gene tycB; ppant installed by Sfp
T2 sequence (O30408 1530-2090 M1767A/M1802I, form open): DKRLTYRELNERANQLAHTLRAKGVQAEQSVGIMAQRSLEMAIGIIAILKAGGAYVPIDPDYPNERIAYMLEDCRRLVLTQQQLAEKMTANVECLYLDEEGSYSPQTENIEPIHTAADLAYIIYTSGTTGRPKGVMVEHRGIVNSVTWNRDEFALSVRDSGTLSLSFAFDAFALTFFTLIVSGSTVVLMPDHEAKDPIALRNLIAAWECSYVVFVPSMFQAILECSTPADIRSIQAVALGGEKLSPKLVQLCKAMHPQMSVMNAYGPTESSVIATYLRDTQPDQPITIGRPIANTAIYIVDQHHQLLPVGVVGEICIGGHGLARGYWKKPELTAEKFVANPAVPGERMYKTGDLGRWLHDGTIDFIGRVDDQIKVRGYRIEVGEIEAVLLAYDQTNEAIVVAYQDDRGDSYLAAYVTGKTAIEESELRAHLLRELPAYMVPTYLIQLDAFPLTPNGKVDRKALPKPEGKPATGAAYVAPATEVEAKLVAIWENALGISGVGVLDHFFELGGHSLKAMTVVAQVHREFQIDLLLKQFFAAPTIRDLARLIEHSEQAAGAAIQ

SMILES: C#CCC(N)C(=O)O (centres unmarked) [pGly, propargyl glycine]
- yeast surface display loading assay, click biotinylation, flow cytometry (TycC6 C-A-T tridomain): the displayed module was found to activate pGly in a concentration-dependent manner

SMILES: C#CCOc1ccc(C[C@H](N)C(=O)O)cc1 [pPhe, 4-propargyloxy-L-phenylalanine]
- yeast surface display loading assay, click biotinylation, flow cytometry (TycB2 A-T bidomain): the variant with the M1768A and M1803I mutations was the most active and selective
